The test system of test [1] is Golovinomyces cichoracearum. Kind of test: Fungicidal activity against Golovinomyces cichoracearum in cucumber seedlings assessed as cucumber powdery mildew disease controlling activity at 500 ppm applied through preventive application relative to untreated control. It is filed as functional.
Test [2] deals with Blumeria graminis f. sp. tritici. Kind of test: Fungicidal activity against Blumeria graminis f. sp. triticii inoculated on wheat seedlings followed by 500 ppm compound application 7 days after fungal inoculation assessed as wheat powdery mildew disease controlling activity relative to untreated control. It is filed as functional.
For test [3] the test system is unchanged. Kind of test: Fungicidal activity against Blumeria graminis f. sp. triticii inoculated on wheat seedlings followed by 125 ppm compound application 7 days after fungal inoculation assessed as wheat powdery mildew disease controlling activity relative to untreated control. It is filed as functional.
Test [4] deals with Golovinomyces cichoracearum. The experiment in a line: Fungicidal activity against Golovinomyces cichoracearum in cucumber seedlings assessed as cucumber powdery mildew disease controlling activity at 31.3 ppm applied through preventive application relative to untreated control. It counts as functional.
Test [5] relates to Oculimacula yallundae. Kind of test: Fungicidal activity against Oculimacula yallundae inoculated oat seeds followed by transfer of inoculated oat seedlings on foot of wheat seedlings followed by 100 ppm compound spraying assessed as degree of wheat eye spot infection (reference value: 82.9 %). It is filed as functional.
In test [6] the test system is Oculimacula yallundae. Kind of test: Fungicidal activity against Oculimacula yallundae inoculated oat seeds followed by transfer of inoculated oat seedlings on foot of wheat seedlings followed by 400 ppm compound spraying assessed as degree of wheat eye spot infection (reference value: 82.9 %). It counts as functional.
The test system of test [7] is Oculimacula yallundae. Kind of test: Fungicidal activity against Oculimacula yallundae assessed as inhibition of mycelial growth. It is filed as functional, organism-based.
Test [8] has as its system Oculimacula yallundae. The experiment in a line: Fungicidal activity against Oculimacula yallundae inoculated oat seeds followed by transfer of inoculated oat seedlings on foot of wheat seedlings followed by 400 ppm compound spraying assessed as wheat eye spot disease control activity relative to untreated control. It counts as functional.
For test [9], the system named is Oculimacula yallundae. Kind of test: Fungicidal activity against Oculimacula yallundae inoculated oat seeds followed by transfer of inoculated oat seedlings on foot of wheat seedlings followed by 100 ppm compound spraying assessed as wheat eye spot disease control activity relative to untreated control. It is filed as functional.
In test [10] the test system is Blumeria graminis f. sp. tritici. The experiment in a line: Fungicidal activity against Blumeria graminis f. sp. triticii inoculated on wheat seedlings followed by 7.8 ppm compound application 7 days after fungal inoculation assessed as wheat powdery mildew disease controlling activity relative to untreated control. It counts as functional.
Test [11] concerns Golovinomyces cichoracearum. The experiment in a line: Fungicidal activity against Golovinomyces cichoracearum in cucumber seedlings assessed as cucumber powdery mildew disease controlling activity at 7.8 ppm applied through preventive application relative to untreated control. It counts as functional.
For test [12], the system named is Blumeria graminis f. sp. tritici. The experiment in a line: Fungicidal activity against Blumeria graminis f. sp. triticii inoculated on wheat seedlings followed by 400 ppm compound application 7 days after fungal inoculation assessed as wheat powdery mildew disease controlling activity relative to untreated control. It is filed as functional.
The test system is the same in test [13]. Kind of test: Fungicidal activity against Blumeria graminis f. sp. triticii inoculated on wheat seedlings followed by 100 ppm compound application 7 days after fungal inoculation assessed as wheat powdery mildew disease controlling activity relative to untreated control. It is filed as functional.
For test [14] the test system is unchanged. The experiment in a line: Fungicidal activity against Blumeria graminis f. sp. triticii inoculated on wheat seedlings followed by 400 ppm compound application 7 days after fungal inoculation assessed as infected leaf area (reference value: 37.8%). It is filed as functional.
The test system is the same in test [15]. Kind of test: Fungicidal activity against Blumeria graminis f. sp. triticii inoculated on wheat seedlings followed by 100 ppm compound application 7 days after fungal inoculation assessed as infected leaf area (reference value: 37.8%). It is filed as functional.
Test [16] shares this test system. Kind of test: Fungicidal activity against Blumeria graminis f. sp. triticii inoculated on wheat seedlings followed by 31.3 ppm compound application 7 days after fungal inoculation assessed as wheat powdery mildew disease controlling activity relative to untreated control. It is filed as functional.
The subject of test [17] is Golovinomyces cichoracearum. Kind of test: Fungicidal activity against Golovinomyces cichoracearum in cucumber seedlings assessed as cucumber powdery mildew disease controlling activity at 125 ppm applied through preventive application relative to untreated control. It is filed as functional.
Test [18] relates to Blumeria graminis f. sp. tritici. Kind of test: Fungicidal activity against Blumeria graminis f. sp. triticii inoculated on wheat seedlings followed by 125 ppm compound application 7 days after fungal inoculation assessed as infected leaf area (reference value: 37.8%). It counts as functional.

A value given as a limit tells only on which side of the number the result lay.

Turning to `CON=C(c1ccon1)c1ccccc1COc1ccccc1[N+](=O)[O-]`, the Activity in [1] and in test [2] was less than 90% in each case.

Regarding `CCc1ccccc1OCc1ccccc1C(=NOC)c1ccon1`, the Activity in [3] and in [4] was 90% in each case.

`CCCN(CCOc1c(Cl)cc(Cl)cc1Cl)C(=O)n1ccnc1` [PROCHLORAZ]: the Activity with Oculimacula yallundae [5] was 63.5%; in the test with Oculimacula yallundae [6] it was 28.3%; in the test with Oculimacula yallundae [8] it was 66%; with Oculimacula yallundae [9] it was 23%. In the test on Oculimacula yallundae [7], the EC50 is listed as 0.04 ppm.

As for `CON=C(c1ccon1)c1ccccc1COc1ccccc1C`, the Activity in test [10] and in test [11] was 90% throughout. Moreover, the EC50 with Oculimacula yallundae [7] worked out at 1.42 ppm.

For the molecule `CNC(=O)/C(=N/OC)c1ccccc1COc1cc(C)ccc1C`, the Activity in test [12] stood at 63%; in test [13] it was 69%; in the test on Oculimacula yallundae [5] it was 66.5%; in the test on Oculimacula yallundae [6], 36.7%; with Oculimacula yallundae [8], 56%; in the test on Oculimacula yallundae [9], 20%. The figures for the Activity in test [14] and in test [15] were 15.5% and 13%, respectively. Further, the EC50 in the test on Oculimacula yallundae [7] is listed as 1.09 ppm.

For the molecule `CON=C(c1ccon1)c1ccccc1COc1ccccc1Br`, the Activity in test [3] and in [11] was 90% in each case.

For `CON=C(c1ccon1)c1ccccc1COc1ccccc1C(F)(F)F`, the Activity in [2] and in [4] was 90% throughout.

Take `CON=C(c1ccon1)c1ccccc1COc1ccc(Cl)cc1`: the Activity in [2] and in [11] was 90% throughout.

Consider `CON=C(c1ccon1)c1ccccc1COc1ccccc1Cl`, for which the Activity in test [3] and in test [11] was 90% each time.

Turning to `CON=C(c1ccon1)c1ccccc1COc1cc(F)ccc1F`, the Activity in [3] and in test [4] was 90% in each case.

Consider `CCCON=C(c1ccon1)c1ccccc1COc1cc(C)ccc1C`, for which the Activity in test [1] and in [2] was less than 90% each time.

For the molecule `CON=C(c1ccon1)c1ccccc1COc1ccc(C)cc1C`, the Activity in test [3] and in [11] was 90% throughout.

Regarding `CON=C(c1ccon1)c1ccccc1COc1cccc(C)c1C`, the Activity in test [3] and in test [11] was 90% each time.

Regarding `CON=C(c1ccon1)c1ccccc1COc1cc(Cl)ccc1Cl`, the Activity in [16] and in test [11] was 90% each time.

Turning to `CON=C(c1ccon1)c1ccccc1COc1ccc(Cl)c(Cl)c1`, the Activity in test [3] and in test [4] was 90% in each case.

In the case of `CON=C(c1ccon1)c1ccccc1COc1ccc(Cl)cc1Cl`, the Activity in [2] is reported as less than 90%; in test [11], 90%.

As for `CON=C(c1ccon1)c1ccccc1COc1c(Cl)cccc1Cl`, the Activity in test [2] is recorded as less than 90%; in test [4], 90%.

On to `CON=C(c1ccon1)c1ccccc1COc1ccc(F)cc1F`, for which the Activity in [3] and in test [11] was 90% throughout.

As for `CON=C(c1ccon1)c1ccccc1Oc1ccccc1`, the Activity in [2] and in test [4] was 90% in each case.

With `CON=C(c1ccon1)c1ccccc1OCc1ccccc1`, the Activity in test [17] turned out to be 90%.

For the molecule `CON=C(c1ccon1)c1ccccc1COc1ccc(F)cc1`, the Activity in test [2] and in test [4] was 90% throughout.

With `CCON=C(c1ccon1)c1ccccc1COc1cc(C)ccc1C`, the Activity in test [1] and in test [2] was less than 90% throughout.

Take `CON=C(c1ccon1)c1ccccc1COc1cc(C)cc(C)c1C`: the Activity in [10] and in test [11] was 90% each time. Moreover, the EC50 in the test on Oculimacula yallundae [7] is recorded as 3.9 ppm.

`CON=C(c1ccon1)c1ccccc1COc1ccc(C)cc1`: the Activity in test [3] and in test [11] was 90% each time.

Regarding `CON=C(c1ccon1)c1ccccc1COc1ccccc1OC`, the Activity in test [17] is on record as 90%; in [2] it was less than 90%.

Consider `CON=C(c1ccon1)c1ccccc1COc1cccc(C)c1`, for which the Activity in test [3] and in test [4] was 90% throughout.

In the case of `CON=C(c1ccon1)c1ccccc1COc1cc(Cl)cc(Cl)c1Cl`, the Activity is 90% in [1] and less than 90% in test [2].

Turning to `C=CCON=C(c1ccon1)c1ccccc1COc1cc(C)ccc1C`, the Activity in test [1] and in test [2] was less than 90% throughout.

Turning to `CON=C(c1ccon1)c1ccccc1COc1ccccc1F`, the Activity in test [3] and in [4] was 90% each time.

Consider `CON=C(c1ccon1)c1ccccc1COc1c(C)cccc1C`, for which the Activity in test [17] and in test [3] was 90% throughout.

Turning to `CON=C(c1ccon1)c1ccccc1COc1ccc(C)c(C)c1`, the Activity in [3] and in test [4] was 90% in each case.

As to `CON=C(c1ccon1)c1ccccc1COc1cc(C)ccc1C`, the Activity is 90% in [10]; 86% in test [12]; 78% in test [13]; 36.9% in the test on Oculimacula yallundae [5]; 19.8% in the test on Oculimacula yallundae [6]; 90% in test [11]. Moreover, the Activity with Oculimacula yallundae [8] was determined as 76%; in the test on Oculimacula yallundae [9], 56%; in test [14], 5.8%; in test [15] it was 9.3%. Also, the EC50 in the test with Oculimacula yallundae [7] was 1.05 ppm.

As for `CC(C)(C)C(=O)C(Oc1ccc(Cl)cc1)n1cncn1` (stereo not drawn) [TRIADIMEFON], the Activity is 97% in test [3] and 1.4% in test [18].

As to `Cc1ccc(C)c(OCc2ccccc2C(=NOC(C)C)c2ccon2)c1`, the Activity in test [1] and in test [2] was less than 90% throughout.

On to `CON=C(c1ccon1)c1ccccc1COc1cccc(F)c1`, for which the Activity in test [17] and in test [2] was 90% in each case.

In the case of `CON=C(c1ccon1)c1ccccc1COc1ccccc1`, the Activity in test [2] and in test [4] was 90% in each case.

As to `CON=C(c1ccon1)c1ccccc1COc1cccc(Cl)c1`, the Activity in [2] and in test [4] was 90% in each case.

As to `CON=C(c1ccon1)c1ccccc1COc1ccc(Cl)cc1C`, the Activity in [16] and in test [11] was 90% throughout.

`Cc1ccc(C)c(OCc2ccccc2C(=NO)c2ccon2)c1`: the Activity in test [17] is reported as 90%; in [2], less than 90%.
